According to EPA's ToxRefDB 2:

Legend:
rat [1] = conditions: Multigenerational reproductive toxicity study, Crl: CD BR, Oral, Feed, dose end: 2 generation
dog [2] = conditions: Chronic toxicity, beagle, Oral, Feed, dose end: 52 week, group: systemic
mouse [3] = conditions: Carcinogenicity; cd1; Oral; Feed; dose end: 18 month; group: systemic; systemic / pathology microscopic / stomach / hyperplasia
rat [4] = conditions: Sub-acute dermal toxicity, fischer, Topical, dose end: 21 day, group: systemic, systemic / in life observation / clinical signs / desquamation + systemic / pathology microscopic / skin / hyperkeratosis + systemic / …
rat [5] = conditions: Chronic toxicity, sprague dawley, Oral, Feed, dose end: 104 week, group: systemic
rat [6] = conditions: Subchronic oral toxicity in rodents, fischer, Feed, dose end: 90 day, group: systemic, systemic / organ weight / kidney / absolute + systemic / organ weight / kidney / relative to body weight + systemic / pathology gross / …
rat [7] = conditions: Neurotoxicity screening battery; sprague dawley; Oral; Feed; dose end: 90 day; group: cannot be grouped; systemic / in life observation / body weight / body weight + systemic / in life observation / food consumption / food consumption + systemic…
rat [8] = conditions: Combined chronic toxicity/carcinogenicity, fischer, Oral, Feed, dose end: 129 week, group: systemic
rat [9] = conditions: Subchronic oral toxicity in rodents, sprague dawley, Feed, dose end: 13 week, group: systemic
dog [10] = conditions: Subchronic oral toxicity in nonrodent, beagle, Feed, dose end: 13 week, group: systemic
rat [11] = conditions: Subchronic oral toxicity in rodents, sprague dawley, Feed, dose end: 90 day, group: systemic, systemic / organ weight / adrenal gland / absolute + systemic / organ weight / adrenal gland / relative to body weight + systemic / organ …
rat [12] = conditions: Fertility (Segment I), wistar, Injection, Intravenous, dose end: 26 PND
mouse [13] = conditions: Fertility (Segment I); other; Injection; Intravenous; dose end: 3 GD; group: parental; systemic / in life observation / clinical signs / motor activity
dog [14] = conditions: Sub-acute repeat dose toxicity, beagle, Injection, Intravenous, dose end: 4 week, group: systemic
rat [15] = conditions: Carcinogenicity, wistar, Oral, Gavage/Intubation, dose end: 24 month, group: systemic
mouse [16] = conditions: Carcinogenicity, other, Oral, Gavage/Intubation, dose end: 106 week, group: systemic
rat [17] = conditions: Fertility (Segment I); wistar; Injection; Intravenous; dose end: 7 GD; group: parental; systemic / in life observation / clinical signs / motor activity + systemic / in life observation / clinical signs / urine, discoloration + …
rat [18] = conditions: Subchronic oral toxicity in rodents, wistar, Gavage/Intubation, dose end: 3 month, group: systemic
[19] = group: offspring, systemic / pathology gross / stomach / irregular surface + systemic / pathology gross / stomach / thickened + systemic / pathology …
[20] = group: parental, systemic / organ weight / kidney / relative to body weight + systemic / pathology gross / stomach / irregular surface + systemic / pathology…
[21] = systemic / pathology gross / stomach / adhesions + systemic / pathology gross / stomach / thickened + systemic / pathology microscopic / …
[22] = systemic / pathology microscopic / stomach / congestion + systemic / pathology microscopic / stomach / mineralization + systemic / clinical …
[23] = systemic / clinical chemistry / potassium / potassium
[24] = systemic / clinical chemistry / potassium / potassium + systemic / clinical chemistry / albumin / albumin + systemic / clinical chemistry / …
[25] = systemic / pathology microscopic / kidney / adenoma + systemic / pathology microscopic / kidney / carcinoma
[26] = systemic / pathology microscopic / kidney / adenoma + systemic / pathology microscopic / kidney / carcinoma + systemic / pathology …
[27] = systemic / pathology microscopic / kidney / inclusion body intracytoplasmic
[28] = systemic / pathology microscopic / liver / inflammation + systemic / clinical chemistry / alanine aminotransferase (alt/sgpt) / alanine …
[29] = group: developmental, developmental / offspring survival late / viability index / viability index
[30] = group: maternal, reproductive / reproductive performance / pregnancy / pregnancy
[31] = group: offspring, systemic / in life observation / clinical signs / [other] + systemic / in life observation / clinical signs / abnormal gait + systemic / in …
[32] = group: offspring, systemic / in life observation / clinical signs / abnormal gait + systemic / in life observation / clinical signs / convulsions + systemic…
[33] = group: parental, systemic / in life observation / body weight / body weight gain + systemic / in life observation / clinical signs / [other] + systemic / in …
[34] = systemic / in life observation / clinical signs / vomitting + systemic / organ weight / prostate / nos
[35] = systemic / in life observation / clinical signs / salivation + systemic / organ weight / liver / relative to body weight + systemic / in …
[36] = systemic / pathology microscopic / stomach / neoplasm nos + systemic / hematology / hematocrit (hct) / hematocrit (hct) + systemic / …
[37] = systemic / hematology / erythrocyte (rbc) count differential / erythrocyte (rbc) + systemic / hematology / hematocrit (hct) / hematocrit (…
[38] = systemic / hematology / leukocyte (wbc) count differential / leukocyte (wbc) + systemic / organ weight / kidney / relative to body weight
[39] = systemic / clinical chemistry / alkaline phosphatase (alp/alk) / alkaline phosphatase (alp/alk) + systemic / clinical chemistry / calcium / …
[40] = systemic / clinical chemistry / glucose / glucose + systemic / hematology / hemoglobin (hgb) / hemoglobin (hgb) + systemic / hematology / …

N#Cc1c(Cl)c(Cl)c(Cl)c(C#N)c1Cl [Chlorothalonil]
LEL (rat [1]; [19]): 32.9 mg/kg/day | LOAEL (rat [1]; [19]): 32.9 mg/kg/day | NEL (rat [1]; [19]): < 32.9 mg/kg/day | NOAEL (rat [1]; [19]): < 32.9 mg/kg/day | LEL (rat [1]; [20]): 28.6 mg/kg/day | LOAEL (rat [1]; [20]): 28.6 mg/kg/day | NEL (rat [1]; [20]): < 28.6 mg/kg/day | NOAEL (rat [1]; [20]): < 28.6 mg/kg/day | LOAEL (dog [2]; [21]): 43.3 mg/kg/day | NOAEL (dog [2]; [21]): 5.1 mg/kg/day | LEL (dog [2]; [22]): 5.1 mg/kg/day | NEL (dog [2]; [22]): < 5.1 mg/kg/day | LEL (mouse [3]): 1.9 mg/kg/day | LOAEL (mouse [3]): 1.9 mg/kg/day | NEL (mouse [3]): < 1.9 mg/kg/day | NOAEL (mouse [3]): < 1.9 mg/kg/day | LEL (rat [4]): 60 mg/kg/day | LOAEL (rat [4]): 60 mg/kg/day | NEL (rat [4]): < 60 mg/kg/day | NOAEL (rat [4]): < 60 mg/kg/day | LEL (rat [5]; [23]): 0.5 mg/kg/day | NEL (rat [5]; [23]): < 0.5 mg/kg/day | LOAEL (rat [5]; [24]): 10 mg/kg/day | NOAEL (rat [5]; [24]): 3 mg/kg/day | LEL (rat [6]): 175 mg/kg/day | LOAEL (rat [6]): 175 mg/kg/day | NEL (rat [6]): < 175 mg/kg/day | NOAEL (rat [6]): < 175 mg/kg/day | LEL (rat [7]): 232 mg/kg/day | LOAEL (rat [7]): 232 mg/kg/day | NEL (rat [7]): 22 mg/kg/day | NOAEL (rat [7]): 22 mg/kg/day | LOAEL (rat [8]; [25]): 40 mg/kg/day | NOAEL (rat [8]; [25]): < 40 mg/kg/day | LEL (rat [8]; [26]): 40 mg/kg/day | NEL (rat [8]; [26]): < 40 mg/kg/day | LEL (rat [9]; [27]): 1.5 mg/kg/day | LOAEL (rat [9]; [27]): 3 mg/kg/day | NEL (rat [9]; [27]): < 1.5 mg/kg/day | NOAEL (rat [9]; systemic / pathology microscopic / kidney / inclusion body intracytoplasmic + systemic / pathology microscopic / kidney / hyperplasia): 1.5 mg/kg/day | LOAEL (dog [10]; systemic / pathology microscopic / liver / infiltration cellular + systemic / pathology microscopic / liver / inflammation): 56.5 mg/kg/day | NOAEL (dog [10]; systemic / pathology microscopic / liver / infiltration cellular + systemic / pathology microscopic / liver / inflammation + systemic / …): 5.6 mg/kg/day | LEL (dog [10]; [28]): 5.6 mg/kg/day | NEL (dog [10]; [28]): < 5.6 mg/kg/day | LEL (rat [11]): 250 mg/kg/day | LOAEL (rat [11]): 750 mg/kg/day | NEL (rat [11]): < 250 mg/kg/day | NOAEL (rat [11]): 250 mg/kg/day

CC(C)c1ccc(C(=O)N=C(N)N)cc1S(C)(=O)=O.CS(=O)(=O)O [Cariporide mesylate]
LEL (rat [12]; [29]): 125 mg/kg/day | LOAEL (rat [12]; [29]): > 125 mg/kg/day | NEL (rat [12]; [29]): 25 mg/kg/day | NOAEL (rat [12]; [29]): ≥ 125 mg/kg/day | LEL (rat [12]; [30]): 125 mg/kg/day | LOAEL (rat [12]; [30]): > 125 mg/kg/day | NEL (rat [12]; [30]): 25 mg/kg/day | NOAEL (rat [12]; [30]): ≥ 125 mg/kg/day | LOAEL (rat [12]; [31]): > 125 mg/kg/day | NOAEL (rat [12]; [31]): ≥ 125 mg/kg/day | LEL (rat [12]; [32]): 5 mg/kg/day | NEL (rat [12]; [32]): < 5 mg/kg/day | LEL (rat [12]; [33]): 125 mg/kg/day | LOAEL (rat [12]; [33]): > 125 mg/kg/day | NEL (rat [12]; [33]): 25 mg/kg/day | NOAEL (rat [12]; [33]): ≥ 125 mg/kg/day | LEL (mouse [13]): 150 mg/kg/day | LOAEL (mouse [13]): > 150 mg/kg/day | NEL (mouse [13]): 50 mg/kg/day | NOAEL (mouse [13]): ≥ 150 mg/kg/day | NEL (dog [14]; systemic / in life observation / clinical signs / vomitting): 5 mg/kg/day | LEL (dog [14]; [34]): 20 mg/kg/day | LOAEL (dog [14]; [34]): > 20 mg/kg/day | NOAEL (dog [14]; [34]): ≥ 20 mg/kg/day | LEL (rat [15]; [35]): 12 mg/kg/day | NEL (rat [15]; [35]): < 12 mg/kg/day | LOAEL (rat [15]; [36]): > 400 mg/kg/day | NOAEL (rat [15]; [36]): ≥ 400 mg/kg/day | LOAEL (mouse [16]; [37]): > 500 mg/kg/day | NOAEL (mouse [16]; [37]): ≥ 500 mg/kg/day | LEL (mouse [16]; [38]): 50 mg/kg/day | NEL (mouse [16]; [38]): < 50 mg/kg/day | LEL (rat [17]): 100 mg/kg/day | LOAEL (rat [17]): > 100 mg/kg/day | NEL (rat [17]): 25 mg/kg/day | NOAEL (rat [17]): ≥ 100 mg/kg/day | LOAEL (rat [18]; [39]): > 1000 mg/kg/day | NOAEL (rat [18]; [39]): ≥ 1000 mg/kg/day | LEL (rat [18]; [40]): 400 mg/kg/day | NEL (rat [18]; [40]): < 400 mg/kg/day
